# In article PMC10062379 (Archives of biochemistry and biophysics, 2022):
# Target: tubulin (αβ-heterodimer)
# Assay: [3H] radioligand binding
# Set-up: species or system Bos taurus
# Conditions: not given
row,Molecule,Kd
1,spongistatin 1,1100 ± 300 nM

# Target: tubulin (αβ-heterodimer)
# Assay: competition with [3H]spongistatin […], centrifugal gel filtration
# Type: binding, Bos taurus
# Conditions: not given
row,Molecule,Ki
1,C=C(Cl)/C=C/C(O)CC(=C)CC1OC2C(C)C(OC(=O)CC3CC(O)CC4(CC(C)(O)CC(/C=C5/COC(C(C)C(=O)CC6CC(OC)CC7(CC(O)CC(/C=C\CCCC8OC(O)(CC(O)C8C)C2O)O7)O6)C5C)O4)O3)C1O (stereo not shown) [spongistatin 5],2200 nM

# Test system: HeLa
# Assay: cells
# Set-up: species or system OVCAR-8, NCI/ADR-RES
# Conditions: Homo sapiens, 96 h, read-out: HeLa / IC50 (nM) ± S.D.)
row,Molecule,IC50
1,COc1cc2cc(c1Cl)N(C)C(=O)C[C@H](OC(=O)[C@H](C)N(C)C(C)=O)[C@]1(C)O[C@H]1[C@H](C)[C@@H]1C[C@@](O)(NC(=O)O1)[C@H](OC)/C=C/C=C(\C)C2 [Maytansine],2 nM
2,CC(C)[C@H](O)C(=O)N[C@H]1Cc2ccc3c(c2)[C@]24C5=C(N=C(O5)[C@H](C(C)C)NC1=O)c1nc(Cl)c(o1)-c1c(Cl)[nH]c5cccc(c15)-c1cccc2c1N[C@@H]4O3 [Diazonamide A],15 ± 5 nM
3,COc1ccc(C[C@H]2NC(=O)/C=C/C[C@@H]([C@H](C)[C@H]3O[C@@H]3c3ccccc3)OC(=O)[C@H](CC(C)C)OC(=O)[C@H](C)CNC2=O)cc1Cl [cryptophycin 1],0.01 ± 0.004 nM
4,C=C1C[C@@H]2CC[C@@]34C[C@H]5O[C@H]6[C@@H](O3)[C@H]3O[C@H](CC[C@@H]3O[C@H]6[C@H]5O4)CC(=O)C[C@@H]3[C@@H](OC)[C@@H](C[C@H](O)CN)O[C@H]3C[C@H]3O[C@@H](CC[C@@H]1O2)C[C@@H](C)C3=C [eribulin],20 nM
5,CC[C@]1(O)C[C@@H]2CN(CCc3c([nH]c4ccccc34)[C@@](C(=O)OC)(c3cc4c(cc3OC)N(C)[C@H]3[C@@](O)(C(=O)OC)[C@H](OC(C)=O)[C@]5(CC)C=CCN6CC[C@]43[C@@H]65)C2)C1 [vinblastine],6 ± 3 nM
6,CN[C@H](C(=O)N[C@H](C(=O)N(C)[C@H](/C=C(\C)C(=O)O)C(C)C)C(C)(C)C)C(C)(C)c1cn(C)c2ccccc12 [hemiasterlin],0.25 ± 0.05 nM
7,CC[C@H](C)[C@@H]([C@@H](CC(=O)N1CCC[C@H]1[C@H](OC)[C@@H](C)C(=O)N[C@@H](Cc1ccccc1)c1nccs1)OC)N(C)C(=O)[C@@H](NC(=O)[C@H](C(C)C)N(C)C)C(C)C [dolastatin 10],0.04 ± 0.01 nM
8,CO[C@@H](/C(C)=C/C=C/C(C)=C/c1coc(C)n1)[C@@H](C)[C@@H]1C[C@H](O)[C@@]2(C)O[C@@H]2/C=C/[C@@H](C)[C@H]2C[C@H](CC(=O)O2)C[C@@H]2O[C@H]2C(=O)O1 [Rhizoxin],3 ± 1 nM
